# From patent US6156789A, “Method for treating abnormal cell proliferation in the brain” (Rhone-Poulenc Rorer S.A., priority 1998, dated 2000)
# Where two headings read alike, the source gives them in different places.
# Assay: Tissue distribution of Compound A in mice with mammary C/16 adenocarcinomas (first method: liver, heart, kidney, lung, spleen, tumor)
# Assay type: in vivo, C3H/HeN female mice
# Settings: for Kp at 1 h / Kp at 14 h / half-life / Tmax / Kp at 0.033 h / Kp at 0.083 h / Kp at 0.25 h / Kp at 4 h / Kp at 0.5 h / Kp at 24 h / Kp at 0.75 h: mouse, iv; for Kp at 0.5 h: 0.50 h
# Experimental: Mammary C/16 adenocarcinomas were implanted in C3H/HeN female mice. At least 7 days later, 4α,10β-diacetoxy-2α-benzoyloxy-5β,20-epoxy-1β-hydroxy-7β,8β-methylene-9-oxo-19-nor-11-taxen-13α-yl (2R,3S)-3-tert-butoxycarbonylamino-2-hydroxy-3-phenylpropionate ("Compound A") was administered to groups of female mice at doses of 9.5, 15.4, 24.8, 40 or 60.5 mg/kg by intravenous injection under 0.4 or 0.5 ml/injection over 15 seconds. The body weight and date of implantation were recorded for each mouse. Blood and tissue samples were taken 2, 5, 15, 30 and 45 minutes and 1, 4, 14, 24 and 48 hours, after administration. The plasma was separated from the blood samples at 4° C. and frozen immediately. The tissue and tumors were weighed and frozen immediately (-20° C.).
# The plasma and tissue samples were then analyzed for the concentration of Compound A. The plasma was assayed by high pressure liquid chromatography with spectrophotometric detection. For the tissue, liver, heart, kidney, lung, spleen and tumor tissue, samples were assayed by a first method, while a second method was used for the brain tissue analyzed. In the first method, 0.2 g of tissue was combined with 2 ml of sodium phosphate buffer 0.1 M (pH:7) and homogenized. The homogenate was centrifuged and 0.5 ml of supernatant was injected into the chromatographic column. In the second method, 10 μl of standard solution was combined with 0.2 g of brain tissue. 2 ml of methanol/5% perchloric acid (50/50) were added and the mixture was homogenized. The homogenate was centrifuged and 100 μl of supernatant was injected into the chromatographic column.
# [1] = kidney/plasma, 40 mg/kg, 40 μg/kg [sic], mice with tumors, single mice, read-out: Tissue/Plasma Ratio, KIDNEY
# [2] = liver/plasma, 40 mg/kg, mice with tumors, single mice, read-out: Tissue/Plasma Ratio, LIVER
# [3] = lung/plasma, 40 mg/kg, 40 μg/kg [sic], mice with tumors, single mice, read-out: Tissue/Plasma Ratio, LUNG
# [4] = spleen/plasma, 40 mg/kg, mice with tumors, single mice, read-out: Tissue/Plasma Ratio, SPLEEN
# [5] = tumor/plasma, 40 mg/kg, mice with tumors, single mice, read-out: Tissue/Plasma Ratio, TUMOR
# [6] = tumor/plasma, dose 9.5, single mice, read-out: Tumor/Plasma Ratio
# [7] = tumor/plasma, dose 15.4, single mice, MEAN=b373, read-out: Tumor/Plasma Ratio
# [8] = tumor/plasma, dose 24.8, single mice, read-out: Tumor/Plasma Ratio
# [9] = tumor/plasma, dose 40, single mice, read-out: Tumor/Plasma Ratio
# [10] = tumor/plasma, dose 60.5, single mice, read-out: Tumor/Plasma Ratio
smiles,measurement,setting,value
"CC(=O)O[C@H]1C(=O)[C@]23C[C@H]2C[C@H]2OC[C@@]2(OC(C)=O)[C@H]3[C@H](OC(=O)c2ccccc2)[C@]2(O)C[C@H](OC(=O)[C@H](O)[C@@H](NC(=O)OC(C)(C)C)c3ccccc3)C(C)=C1C2(C)C [Compound A, 4α,10β-diacetoxy-2α-benzoyloxy-5β,20-epoxy-1β-hydroxy-7β,8β-methylene-9-oxo-19-nor-11-taxen-13α-yl (2R,3S)-3-tert-butoxycarbonylamino-2-hydroxy-3-phenylpropionate]",Kp at 1 h,[1],2.17
same,Kp at 14 h,[1],2.56
same,half-life,"liver, 40 mg/kg, 40 mg/kg i.v., read-out: half-life of the distribution phase, liver (converted)",17.4 min
same,half-life,"liver, 40 mg/kg, read-out: t 1/2, Liver (converted)",186 min
same,Tmax,"liver, 40 mg/kg i.v., read-out: time of maximum concentration, liver",4.98 min
same,Kp at 0.033 h,[2],1.54
same,Kp at 0.083 h,[2],3.07
same,Kp at 0.25 h,[2],1.79
same,Kp at 1 h,[2],1.71
same,Kp at 4 h,[2],0.93
same,Kp at 14 h,"liver/plasma, 40 mg/kg, mice with tumors, single mouse, read-out: Tissue/Plasma Ratio, LIVER",1.62
same,half-life,"lung, 40 mg/kg, 40 mg/kg i.v., read-out: half-life of the distribution phase, lung (converted)",20.4 min
same,half-life,"lung, 40 mg/kg, read-out: t 1/2, Lung (converted)",174 min
same,Tmax,"lung, 40 mg/kg i.v., read-out: time of maximum concentration, lung",4.98 min
same,Kp at 0.033 h,[3],0.33
same,Kp at 0.083 h,[3],0.79
same,Kp at 0.25 h,[3],0.95
same,Kp at 0.5 h,[3],1.27
same,Kp at 1 h,[3],1
same,Kp at 4 h,[3],1.43
same,Kp at 14 h,[3],0.81
same,half-life,"spleen, 40 mg/kg, 40 mg/kg i.v., read-out: half-life of the distribution phase, spleen (converted)",13.8 min
same,half-life,"spleen, 40 mg/kg, read-out: t 1/2, Spleen (converted)",450 min
same,Tmax,"spleen, 40 mg/kg i.v., read-out: time of maximum concentration, spleen",4.98 min
same,Kp at 0.033 h,[4],0.46
same,Kp at 0.25 h,[4],0.85
same,Kp at 0.5 h,[4],1.24
same,Kp at 1 h,[4],1.1
same,Kp at 4 h,[4],1.72
same,Kp at 14 h,[4],2.37
same,half-life,"tissues, 40 mg/kg, 40 mg/kg i.v., tissues other than brain, read-out: half-life in the other tissues",96 to 558 min
same,half-life,"tissues, 40 mg/kg, 40 mg/kg i.v., tissues tested except tumor and brain, read-out: elimination half-life, slower phase",96 to 450 min
same,half-life,"tumor, 40 mg/kg, read-out: t 1/2, Tumor (converted)",558 min
same,Tmax,"tumor, 40 mg/kg i.v., read-out: time of maximum concentration, tumor",15 min
same,Kp at 0.033 h,[5],0.2
same,Kp at 0.083 h,[5],0.37
same,Kp at 0.25 h,[5],0.58
same,Kp at 0.5 h,[5],0.78
same,Kp at 1 h,[5],0.95
same,Kp at 4 h,[5],1.8
same,Kp at 24 h,[5],2.79
same,Kp at 0.033 h,[6],0.24
same,Kp at 0.25 h,[6],0.51
same,Kp at 0.75 h,[6],0.94
same,Kp at 1 h,[6],2.02
same,Kp at 4 h,[6],3.45
same,Kp at 0.033 h,[7],0.23
same,Kp at 0.083 h,[7],0.28
same,Kp at 0.25 h,[7],0.6
same,Kp at 0.5 h,[7],0.97
same,Kp at 0.75 h,[7],1.75
same,Kp at 1 h,[7],1.83
same,Kp at 4 h,[7],1.9
same,Kp at 0.033 h,[8],0.13
same,Kp at 0.083 h,[8],0.28
same,Kp at 0.25 h,[8],0.71
same,Kp at 0.75 h,[8],1.14
same,Kp at 1 h,[8],1.29
same,Kp at 4 h,[8],1.61
same,Kp at 0.033 h,[9],0.2
same,Kp at 0.083 h,[9],0.37
same,Kp at 0.25 h,[9],0.58
same,Kp at 0.5 h,[9],0.78
same,Kp at 1 h,[9],0.95
same,Kp at 4 h,[9],1.8
same,Kp at 24 h,[9],2.79
same,Kp at 0.083 h,[10],0.19
same,Kp at 0.25 h,[10],0.39
same,Kp at 0.5 h,[10],0.62
same,Kp at 4 h,[10],2.48
same,Kp at 24 h,"tumor/plasma, dose 60.5, single mouse, read-out: Tumor/Plasma Ratio",13.3
same,"pharmacokinetics in mice with mammary tumors, linearity",range of doses administered,similarly linear
